Test results published in PMC7449411, “In silico discovery and biological validation of ligands of FAD synthase, a promising new antimicrobial target” (PLoS Computational Biology, 2020).
≈ marks a conversion by molar mass, not a printed value.

Assays:
M. tuberculosis = test: MIC, resazurin broth microdilution; assay type: cell-based, Mycobacterium tuberculosis; conditions: for MIC: M. tuberculosis, media 7H9G-ADC; for MIC (μM) M. tuberculosis: Table 3
C. diphteriae = test: MIC, resazurin broth microdilution; assay type: cell-based, Corynebacterium diphteriae
Mycobacteriumspecies = test: MIC against Mycobacterium species (S5 Fig legend); assay type: cell-based
C. ammoniagenes = test: MIC, resazurin broth microdilution; assay type: cell-based, Corynebacterium ammoniagenes; conditions: for MIC: C. ammoniagenes; for MIC (μM) C. ammoniagenes: Table 3
S. thyphimurium = test: MIC, resazurin broth microdilution; assay type: cell-based, Salmonella thyphimurium; conditions: media MH
S. pneumoniae = test: MIC, resazurin broth microdilution; assay type: cell-based, Streptococcus pneumoniae
P. aeruginosa = test: MIC, resazurin broth microdilution; assay type: cell-based, Pseudomonas aeruginosa; conditions: media MH
[1] = target: T1, RFK+FMNAT CaFADS activities (Corynebacterium ammoniagenes, UniProt Q59263); test: Inhibition of the RFK+FMNAT activity of CaFADS; assay type: biochemical; conditions: 25 °C; for RFK+FMNAT % Res. act. 250 μM: residual activity at 250 μM of compound; for IC50: kinetic measurements, 20 mM PIPES pH 7.0, 10 mM MgCl2, 2% DMSO
T1 construct: made in house; host or cells: Escherichia coli BL21(DE3)
Description: (§1) To determine the compound’s ability to inhibit the RFK and/or the FMNAT activities of CaFADS, both enzymatic activities were quantitatively measured in the absence and presence of the compounds following previously described protocols. Reaction mixtures contained 50 μM ATP, 5 μM RF in 20 mM PIPES, pH 7.0, 0.8 mM MgCl2, when assaying the RFK activity, and 50 μM ATP, 10 μM FMN in 20 mM PIPES, pH 7.0, 10 mM MgCl2 when measuring the FMNAT reaction. Each compound was tested at 250 μM (0.5% residual final concentration of DMSO) for each of the two enzymatic reactions. The samples were pre-incubated at 25 °C, the reaction was then initiated by the addition of ∼ 40 nM CaFADS (final concentration) and allowed for 1 min. Finally, the reaction was stopped by boiling the samples for 5 min and the denatured protein was eliminated through centrifugation. The transformation of RF into FMN and FAD (RFK activity) and of FMN into FAD (FMNAT activity) was evaluated through flavins separation by HPLC (Waters), as previously described. All the experiments were performed in triplicate. To evaluate the potency of compounds as inhibitors, we took advantage of the decrease in quantum yield of fluorescence when FMN is transformed into FAD, which allows to follow such transformation in a continuous system. Measurements were carried out using a microplate reader Synergy HT multimode plate reader (Biotek) with BRAND 96-well plates pure Grade. Reaction mixtures contained 5 μM RF or FMN, and 50 μM ATP in 20 mM PIPES, pH 7.0, 10 mM MgCl2, and the inhibitor compound in a 5-250 μM concentration range (2% residual final concentration of DMSO). Reactions were initiated through addition of 0.4 μM CaFADS, being the final reaction volume 100 μL. Flavin fluorescence (excitation at 440 nm and emission at 530 nm) was registered at 25 °C, every 50 s during 15 min. The fluorescence change per time unit (ΔF/Δt) was calculated as the slope of the resulting fluorescence decays recorded between 0 and 6 min (linear decay of the fluorescence). Controls which contained the reaction mixture without the enzyme and without any potential CaFADS inhibitory compound were included in the assay and referred as the 0% and 100% of enzymatic activity, respectively. IC50 was calculated as the concentration of compound required for a 50% inhibition of the enzymatic activity.

E. coli = test: MIC, resazurin broth microdilution; assay type: cell-based, Escherichia coli; conditions: media LB
S. aureus = test: MIC, resazurin broth microdilution; assay type: cell-based, Staphylococcus aureus; conditions: media MH
M. smegmatis = test: MIC, resazurin broth microdilution; assay type: cell-based, Mycobacterium smegmatis; conditions: media 7H9G-ADC
FMNAT activity of CaFADS = target: T2, FMNAT activity of CaFADS (Corynebacterium ammoniagenes, UniProt Q59263); test: Inhibition of the FMNAT activity of CaFADS; assay type: biochemical; conditions: 25 °C; for FMNAT % Res. act. 250 μM: residual activity at 250 μM of compound; for IC50: kinetic measurements, 5 μM FMN, 50 μM ATP, 20 mM PIPES pH 7.0, 10 mM MgCl2, 2% DMSO
T2 construct: made in house; host or cells: Escherichia coli BL21(DE3)
Description: as §1

C. glutamicum = test: MIC, resazurin broth microdilution; assay type: cell-based, Corynebacterium glutamicum; conditions: media BHI
L. monocytogenes = test: MIC, resazurin broth microdilution; assay type: cell-based, Listeria monocytogenes; conditions: media BHI
HeLa = test: MTT cytotoxicity assay; assay type: cell-based; conditions: 24 h
Description: (§2) The (4,5-dimethylthiazol-2-yl)-2,5-diphenyl tetrazolium bromide (MTT) assay was used to determine the effect of the compounds in cell growth and viability of HeLa (ATCC CCL-2) and A549 (ATCC CCL-185) eukaryotic cell lines. Both cell lines were routinely cultured in high-glucose DMEM (Lonza) supplemented with 10% fetal bovine serum, 4 mM glutamine GlutaMAX™ (Gibco) and 1x non-essential amino acids (Gibco), under 5% CO2 at 37 °C in a humidified atmosphere. For the MTT assay, cells were initially seeded in 96-well flat-bottom plates at a density of 10^4 cells per well and cultured for 24 h. Cultures were routinely tested for mycoplasma presence. The compounds were dissolved in fresh culture medium, added in a 4-512 μM concentration range (1% DMSO final concentration), and incubated with the cells for 24 h. Finally, formazan crystals were dissolved with pure DMSO and MTT absorbance was measured at 570 and 650 nm. Untreated cells were included as control of 100% viability. Assays were done in quadruplicate.

A549 = test: MTT cytotoxicity assay; assay type: cell-based; conditions: 24 h
Description: as §2

CaFADS = target: T3, CaFADS (Corynebacterium ammoniagenes, UniProt Q59263); test: Differential scanning fluorescence (thermal denaturation) binding to CaFADS; conditions: for Tm shift of CaFADS thermal denaturation: 2 μM CaFADS, compound up to 250 μM; for Kd: from differential scanning fluorescence data fitted to Eq 2, 20 mM PIPES pH 7.0, 10 mM MgCl2, 2% DMSO, n = 3, mean ± SD
T3 construct: made in house; host or cells: Escherichia coli BL21(DE3)
Description: Interaction of compounds with CaFADS was evaluated using fluorescence thermal denaturation, on the bases of the shifts in denaturation midpoints of thermal curves of the protein [65]. Denaturations were performed in a Stratagene Agilent Mx3005p qPCR instrument (Santa Clara, US) following SYPR Orange (ThermoFisher Scientific) emission fluorescence (excitation at 492 nm and emission at 610 nm), which greatly increases when this probe binds to protein hydrophobic regions becoming solvent exposed upon thermal unfolding. Solutions containing 2 μM CaFADS with the studied compound in an increasing 5-250 μM concentration range (2% residual final concentration of DMSO) and 5xSYPR Orange in 20 mM PIPES pH 7.0, 10 mM MgCl2, with a 100 μL total volume were dispensed into 96-well microplates (BRAND 96-well plates pure grade™). After an initial 1 min incubation at 25 °C within the equipment, unfolding curves were registered from 25 to 100 °C at 1 °C·min^−1. Control experiments with CaFADS samples with/without DMSO were routinely performed in each microplate. For those compounds shifting midpoint denaturation temperature, Tm, the dissociation constant, Kd, was predicted by fitting the data to the equation [66] ΔTm/Tm=NRTm0/ΔH0ln(1+[L]/Kd), (2) which estimates the extent of the ligand-induced protein stabilization/destabilization. ΔTm=|Tm-Tm0| with Tm0 and Tm being the midpoint denaturation temperatures in the absence and the presence of ligand, respectively, and ΔH0 the unfolding enthalpy of the protein in the absence of ligand.

[2] = 4-512 μM range, read-out: IC50 (concentration causing 50% inhibition of cellular viability)
[3] = complete viability at lower concentrations

T1 sequence (Q59263 whole entry): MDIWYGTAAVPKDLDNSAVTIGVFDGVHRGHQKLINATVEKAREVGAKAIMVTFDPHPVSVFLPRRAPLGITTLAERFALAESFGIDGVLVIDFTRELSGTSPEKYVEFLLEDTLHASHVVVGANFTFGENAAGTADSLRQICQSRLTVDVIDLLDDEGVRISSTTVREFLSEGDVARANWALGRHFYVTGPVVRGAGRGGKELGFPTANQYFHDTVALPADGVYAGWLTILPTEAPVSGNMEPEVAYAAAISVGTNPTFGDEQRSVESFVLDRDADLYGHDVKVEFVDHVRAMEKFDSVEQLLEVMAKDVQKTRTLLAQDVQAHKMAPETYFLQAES
T3 sequence (Q59263 whole entry): as above
T2 sequence (Q59263 whole entry): as above

Row | SMILES | MIC (M. tuberculosis) [µM] | MIC (C. diphteriae; media BHI) [µM] | MIC (C. diphteriae; media MH) [µM] | MIC (C. ammoniagenes; media BHI) [µM] | MIC (C. ammoniagenes; media MH) [µM] | MIC (C. ammoniagenes; media MH+DFO) [µM] | MIC (C. ammoniagenes; media MH+DIP) [µM] | MIC (C. ammoniagenes; media MH+DIP+DFO) [µM] | MIC (S. thyphimurium) [µM] | MIC (S. pneumoniae; media BHI) [µM] | MIC (S. pneumoniae; media MH) [µM] | MIC (P. aeruginosa) [µM] | RFK+FMNAT % Res. act. 250 μM [1] [%] | MIC (E. coli) [µM] | MIC (S. aureus) [µM] | MIC (M. smegmatis) [µM] | FMNAT % Res. act. 250 μM (FMNAT activity of CaFADS) [%] | MIC (C. glutamicum) [µM] | MIC (L. monocytogenes) [µM] | Tm shift of CaFADS thermal denaturation (CaFADS) | further results
1 | COc1ccc(C(NC(=O)CCC(NC(=O)OCc2ccccc2)C(=O)O)c2ccc(OC)cc2)cc1 (stereo not shown) [Compound C2, 2-{[(benzyloxy)carbonyl]amino}-5-{[di(4-methoxyphenyl)methyl]amino}-5-oxopentanoic acid] | 256 (≈ 130 µg/mL) | 64 (≈ 32.4 µg/mL) | 128 (≈ 64.8 µg/mL) | 64 (≈ 32.4 µg/mL) | 128 (≈ 64.8 µg/mL) | 128 (≈ 64.8 µg/mL) | 128 (≈ 64.8 µg/mL) | 64 (≈ 32.4 µg/mL) | > 256 | 256 (≈ 130 µg/mL) | > 256 | > 256 | 88 ± 2 | > 64 | 128 (≈ 64.8 µg/mL) | 256 (≈ 130 µg/mL) | >95 | 16 (≈ 8.1 µg/mL) | > 64 |  | MIC (μM) M. tuberculosis (M. tuberculosis): 256 µM (≈ 130 µg/mL); MIC Mycobacterium species (Mycobacteriumspecies): lower than 256 μM; MIC C. ammoniagenes (C. ammoniagenes; S5 Fig legend, medium not stated): 64 µM (≈ 32.4 µg/mL); MIC (μM) C. ammoniagenes (C. ammoniagenes): 128 µM (≈ 64.8 µg/mL); IC50 (HeLa; [2]): > 512 µM; IC50 (A549; [2]): > 512 µM
2 | CC1(C(=O)O)CCC2C(CCC3CC(O)CCC32C)C1C=C1Nc2ccccc2C1=O (stereo not shown) [Compound C3, 7-hydroxy-2,4b-dimethyl-1-[(3-oxo-2,3-dihydro-1H-2-indolyliden)methyl]perhydro-2-phenanthrenecarboxylic acid] | 256 (≈ 108 µg/mL) | > 64 | > 256 | > 64 | > 256 | > 256 | > 256 | > 256 | > 256 | 256 (≈ 108 µg/mL) | 256 (≈ 108 µg/mL) | > 256 | 48 ± 5 | > 64 | > 256 | > 256 | 48 ± 3 | > 64 | > 64 | shifted it to lower values | MIC (μM) M. tuberculosis (M. tuberculosis): 256 µM (≈ 108 µg/mL); MIC Mycobacterium species (Mycobacteriumspecies): lower than 256 μM; MIC (μM) C. ammoniagenes (C. ammoniagenes): >256 µM; IC50 [1]: 248 ± 3 µM; IC50 (FMNAT activity of CaFADS): 238 ± 7 µM; Kd (CaFADS): 18 ± 8 µM
3 | CSC(=NS(=O)(=O)c1c(C)noc1C)NNC(=O)Nc1ccc(Cl)cc1 [Compound C9, N1-(4-chlorophenyl)-2-[{[(3,5-dimethylisoxazol-4-yl)sulfonyl]imino}(methylthio)methyl]hydrazine-1-carboxamide] | > 256 | > 64 | > 256 | > 64 | > 256 | > 256 | > 256 | > 256 | > 256 | > 256 | > 256 | > 256 | 76 ± 3 | > 64 | > 256 | > 256 | 56 ± 6 | > 64 | > 64 | more than 3 degrees | Kd (CaFADS): 6.4 ± 1.2 µM
4 | O=C(O)c1ccccc1C(=O)NC1CCN(c2nccc(C(F)(F)F)n2)CC1 [Compound C18, 2-[({1-[4-(trifluoromethyl)pyrimidin-2-yl]piperidin-4-yl}amino)carbonyl]benzoic acid] | > 256 |  | 32 (≈ 12.6 µg/mL) |  | > 256 |  | > 256 | 256 (≈ 101 µg/mL) | > 256 |  |  | > 256 |  | > 256 | 256 (≈ 101 µg/mL) |  |  | > 256 | 64 (≈ 25.2 µg/mL) | shifted it to lower values | IC50 [1]: 147 ± 4 µM; IC50 (FMNAT activity of CaFADS): 143 ± 4 µM; Kd (CaFADS): 3 ± 0.9 µM; concentration range with moderate cytotoxicity (HeLa; [3]): 256 to 512 µM; concentration range with moderate cytotoxicity (A549; [3]): 256 to 512 µM
5 | O=C(NCCNc1ccc(C(F)(F)F)cc1[N+](=O)[O-])c1cccnc1Oc1ccccc1 [Compound C26, N-{2-[2-nitro-4-(trifluoromethyl)anilino]ethyl}-2-phenoxynicotinamide] | > 256 |  | > 256 |  | > 256 | > 256 | > 256 | > 256 | > 256 |  |  | > 256 | 84 ± 4 | > 256 | > 256 |  | 72 ± 6 | > 256 | > 256 |  | 
